Source: patent US9908890B2, “Selective inhibitors of constitutive androstane receptor” (ST. JUDE CHILDREN'S RESEARCH HOSPITAL, priority 2014, dated 2018)

What was measured:
[1] = tested on: CAR-regulated genes in HepG2-hCAR1 cells; experiment: Quantitative real-time PCR in HepG2-hCAR1 cells; type: cell-based, human
Description: RNA was extracted, cDNA synthesized, and gene expression analyzed by performing real-time PCR using Taqman probes for each gene. […] LS174T cells were maintained in 10% charcoal-dextran-treated, FBS media for 4 days before the experiment. […] Briefly, human primary hepatocytes (HPH) were maintained in William's E media with supplements for 4 days before treatment. […] RNA extracted was used for cDNA synthesis and measured by performing quantitative real-time PCR assays with Taqman probes.
Briefly, LS174T were maintained in 10% charcoal-dextran treated-FBS media for 4 days prior to the experiment. […] For the data shown in both FIG. 12A and FIG. 12B, RNA extracted was used for cDNA synthesis and measured by quantitative real-time PCR with Taqman probes. MDR1 mRNA was normalized to the internal control 18S and DMSO treated samples were set to 1. *, p<0.05 when compared to DMSO samples.
Cell lines or human hepatocytes were treated with chemicals for 24-48 hours before RNA was extracted and purified by using the Maxwell 16LEV simplyRNA tissue kit (Promega). Then, cDNA was prepared from 2 μg of RNA, and diluted cDNA was used to perform quantitative RT-PCR assays by using TaqMan probes (ABI; 7500 Thermocycler) with 18S as the internal standard.

[2] = tested on: FLAG-hCAR1 nuclear localization; experiment: Immunofluorescence of FLAG-hCAR1 in U2OS cells; type: cell-based, human; conditions: 5 μM CINPA1, 2 h
Description: Briefly, CAR binding to PGC-1α coactivator peptide was determined by using the LanthaScreen® fluorescent coregulator peptide assay. Fluorescein-labeled PGC-1α peptide (125 nM) was complexed with GST-hCAR-LBD (5 nM) and Tb-anti-GST antibody (5 nM) as described in Experimental Procedures. […] Lysates were prepared, and CAR expression was analyzed by Western blot using CAR monoclonal antibody (Clone N4111, R&D Systems). β-actin was used as a loading control. […] Briefly, U2OS cells were transfected to express FLAG-hCAR1. […] Secondary antibody labeled with Alexa Fluor® 555 dye was used to visualize FLAG-tagged hCAR1 (shown in the second column) using a NikonC 1Si microscope. Nuclei were stained with DAPI (shown in the first column).
U2OS cells were transiently transfected to express FLAG-hCAR1. […] Cells were fixed by using a 4% paraformaldehyde solution (Sigma), permeabilized by using 0.5% Triton X-100 in PBS, and incubated with FLAG-antibody overnight at 4° C. Cells were washed three times with PBS following each step. Secondary antibody labeled with Alexa Fluor® 555 dye was used to visualize FLAG-tagged hCAR1 (red) using a NikonC 1Si microscope. Nuclei were stained with DAPI (blue).

hCAR1 = molecular target: T1, hCAR1 (Homo sapiens, UniProt Q14994); experiment: CAR-mediated CYP3A4-luciferase assay (HepG2 cells transfected with hCAR1); type: cell-based; conditions: 1 μM or 5 μM CINPA1, 24 h
T1 construct: expressed in transfected cells; host or cells: HepG2 (transient transfection)
T1 sequence (Q14994 1-348 isoform Q14994-2): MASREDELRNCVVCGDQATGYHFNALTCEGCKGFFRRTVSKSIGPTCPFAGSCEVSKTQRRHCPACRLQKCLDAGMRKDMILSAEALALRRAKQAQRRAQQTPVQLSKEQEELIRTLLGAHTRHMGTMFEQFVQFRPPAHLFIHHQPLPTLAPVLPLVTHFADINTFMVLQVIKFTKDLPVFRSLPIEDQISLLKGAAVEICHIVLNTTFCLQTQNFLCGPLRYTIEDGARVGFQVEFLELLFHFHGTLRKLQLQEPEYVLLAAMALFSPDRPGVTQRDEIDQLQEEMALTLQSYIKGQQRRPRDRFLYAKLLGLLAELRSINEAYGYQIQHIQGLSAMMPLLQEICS
Description: Briefly, HepG2 cells were transiently transfected with plasmids expressing hCAR1, CYP3A4-luc reporter and control plasmid pTK-RL. […] Dual luciferase activity was measured 24 h after treatment using Dual-Glo® luciferase reagent. Renilla luciferase was used to normalize firefly luciferase values and % Luciferase activity was calculated by setting DMSO to 100%. p<0.001, when comparing DMSO to all treatments except 5 μM rifampicin. […] Briefly, HepG2-PXR Clone 1 cells were treated with CINPA1 in a dose-responsive format (40 μM to 2 nM, 1-to-2 dilutions for 10 concentrations) in the presence or absence of 5 μM rifampicin (Rif) for 24 h before luciferase assay using SteadyLite™. % PXR activity was calculated by setting DMSO (negative. control) treated cells to 0% and 5 μM rifampicin (positive. control) treated cells to 100%. GraphPad Prism was used to fit the data into a dose-response stimulation equation to derive IC50 values. […] Briefly, U2OS cells were transiently transfected with plasmids expressing hCAR1, CYP2B6-luc reporter and control plasmid pTK-RL. […] Dual luciferase activity was measured 24 h after treatment. Renilla luciferase was used to normalize firefly luciferase values and % Luciferase activity was calculated by setting DMSO to 100%. *, p<0.0001 comparing CITCO+CINPA1 to CITCO treated cells.

## CCOC(=O)Nc1ccc2c(c1)N(C(=O)CN(CC)CC)c1ccccc1CC2 [CINPA1]
[1]; HepG2-hCAR1, 0.1 μM CINPA1 or 1 μM PK11195, 24 h
  MDR1 mRNA level: reduced MDR1 levels
[1]; HepG2-hCAR1, 1 μM, 24 h
  CYP2B6 mRNA level: substantially and significantly attenuated
  CYP3A4 mRNA level: substantially and significantly attenuated
[2]
  nuclear localization of CAR: does not alter the nuclear localization of CAR
hCAR1
  CAR-mediated CYP3A4-luciferase activity: also seen in CAR-mediated CYP3A4-luciferase activity
